Source: patent US20210244738A1, “COMPOSITIONS AND METHODS FOR SUPPRESSING NONSENSE MUTATIONS” (The UAB Research Foundation, priority 2018, published 2021)

Legend:
[1] = test system: W134X NanoLuc RT/NMD reporter; test: W134X NanoLuc readthrough/NMD reporter screen in Fischer rat thyroid cells; format: cell-based; settings: NanoLuc activity; for +G418 Fold-Increase (Rel. to G418): drug conc. 60 μM combined with G418 100 μg/ml
Experimental: Equal numbers of the W134X NanoLuc RT/NMD monoclonal reporter cells were seeded into 96-well plates and cultured without zeocin for 24 hours. The cells were then treated with screening compounds for 24-hours. Dimethylsulfoxide served as the vehicle in which compounds were administered at a final concentration of 60 μM or 30 μg/ml. After treatment, the cells were washed once with phosphate-buffered saline, followed by incubation with passive lysis buffer (PLB) (Promega, E1941) for 20 minutes at room temperature. NanLuc activity in cell lysates was assayed with the Nano-Glo Luciferase Assay System (Promega, N1120) using the GloMax® Discover System (Promega). NanoLuc activity was normalized to the lysate protein concentration, which was determined by the Bio-Rad Protein Assay Reagent (Bio-Rad, 500-006).
In order to identify new compounds with the ability to suppress PTCs by inducing readthrough, inhibiting NMD, or both, a NanoLuc reporter that harbors a point mutation at codon W134 was utilized, resulting in the introduction of a UGA termination codon (W134X) into the NanoLuc cDNA. This NanoLuc construct was fused in-frame to a human β-globin construct containing intronic regions, which allows the W134X PTC to elicit exon-junction-complex dependent NMD (FIG. 1A). This NanoLuc readthrough/NMD reporter was stably expressed in Fischer rat thyroid cells, which were used to screen a 10,000 low molecular weight compound library for compounds that increase NanoLuc activity in treated cells relative to a vehicle control.

[2] = test system: Idua mRNA in wildtype MEFs; test: Steady state Idua mRNA by qPCR in wildtype MEFs; format: cell-based, mouse; settings: 48 hours, compared to the vehicle alone control
Experimental: Total RNA was isolated from MEFs using the Ambion RiboPure kit and DNase-treated using the Turbo DNA-Free kit. Polyadenylated RNA was reverse transcribed into cDNA in a 50 μl reaction containing […] of total RNA; 0.5 mg/ml oligo dT; 1.2 mM dNTPs; 40 U RNasin (Promega); […] of 5×AMV RT buffer and 40 U AMV reverse transcriptase (Promega), RT reactions were incubated at 42° C. for 1.5 hours, and then heat inactivated at 65° C. for 15 minutes. The cDNA was ethanol precipitated and subjected to qPCR in a 25 μl reaction containing 12.5 μl iQ SYBR Green Supermix (Bio-Rad); 0.2 mM of each forward and reverse primer; and […] of cDNA. […]
Melt curve analysis was initially performed with each primer set to verify that only one gene product was generated from the PCR reactions. […] The average quantification cycle (Cq) was determined for each mRNA, and mRNA quantification was performed using the Livak (DDCq) method (Livak K J, et al. (2001) Methods. 25(4):402-8), where Gapdh and Rpl13a served as normalization controls.

Idua-KO MEFs [3] = test: GAG levels in Idua-KO MEFs; format: cell-based, mouse; settings: 48 hours (FIG. 7B)
Experimental: MEFs were grown to 50% confluency and then treated with screening agents for 48 hours.

Idua-KO MEFs [4] = test: α-L-iduronidase activity in Idua-KO MEFs; format: cell-based, mouse; settings: 48 hours (FIG. 7A)
Experimental: MEFs were seeded into 6-well culture dishes at a density of 1.5×10^5 cells per well. MEFs were grown to 50% confluency and then treated with screening agents for 48 hours. MEFs were subsequently washed with PBS and lysed in Mammalian Protein Extraction Reagent (Pierce) containing a protease inhibitor cocktail (Roche). The total protein concentration was determined using the Bio-Rad Protein Assay, Approximately 75 micrograms of total lysate protein was incubated in a 70-microliter reaction containing 0.12 mM 4-methyl-umbelliferyl-α-L-iduronide (Gold Biotech) and 0.42 mg/ml of D-saccharic acid 1,4-lactone monohydrate (a β-glucuronidase inhibitor) (Sigma 50375) in 130 mM sodium formate buffer, pH 3.5. The reaction was incubated for 72 hours at 37° C. and then quenched with 300 μl of glycine buffer, pH 10.8. 200 μl of each sample was transferred to a 96-well plate (Corning 3631) and fluorescence was measured at an excitation=365 nm and an emission=450 nm using the GloMax® Discover System (Promega). Free acid 4-methylumbelliferone (FMU) (Sigma M1381) in glycine buffer was used to generate a standard curve.

[5] = Hirawat et al. 2004, 2007; cited from earlier work
[6] = test system: cystic fibrosis patients who carry a PTC; settings: Kerem et al. 2014; cited from earlier work

| Compound | +G418 Fold-Increase (Rel. to G418) [1] [fold] | Drug Alone Fold-Increase (Rel. to Basal) ([1]; drug conc. 60 μM, 24 h) [fold] | also measured |
| --- | --- | --- | --- |
| COc1cc2nc(N3CCN(C(=O)C4COc5ccccc5O4)CC3)nc(N)c2cc1OC (stereo not shown) [Doxazocin] | 10.3 | 4.1 | change of Idua mRNA levels [2]: slightly increased Idua mRNA levels |
| COc1cc2c(cc1OC)CN(CCc1ccc(NC(=O)c3cccc4c(=O)c5cccc(OC)c5[nH]c34)cc1)CC2 [Elacridar] | 6.0 | 4.8 |  |
| CN[C@@H]1[C@@H](O)[C@@H](O[C@@H]2[C@@H](O)[C@H](O[C@H]3O[C@H]([C@@H](C)O)[C@@H](O)[C@H](O)[C@H]3N)[C@@H](N)C[C@H]2N)OC[C@]1(C)O [G418 alone] |  |  | Drug Alone Fold-Increase (Rel. to Basal) ([1]; readthrough control at 100 μg/ml): 24 fold |
| CCCn1c(=O)c2[nH]c(-c3cnn(Cc4cccc(C(F)(F)F)c4)c3)nc2n(CC)c1=O [GS-6201] | 13.6 | 10.3 |  |
| Cc1ccc(NC(=O)c2ccc(CN3CCN(C)CC3)cc2)cc1Nc1nccc(-c2cccnc2)n1 [Imantinib] | 19.1 | 4.6 |  |
| C=CCN1CC[C@]23c4c5ccc(O)c4O[C@H]2/C(=N/N=C2\CC[C@@]4(O)[C@H]6Cc7ccc(O)c8c7[C@@]4(CCN6CC=C)[C@H]2O8)CC[C@@]3(O)[C@H]1C5 [Naloxonazine] | 5.8 | 2.7 |  |
| CN1CC(=O)N2[C@H](c3ccc4c(c3)OCO4)c3[nH]c4ccccc4c3C[C@@H]2C1=O [Tadalafil] | 6.3 | 2.3 |  |
| COc1cc2c(N3CCN(C(=O)Nc4ccc(OC(C)C)cc4)CC3)ncnc2cc1OCCCN1CCCCC1 [Tandutinib] | 7.8 | 3.8 |  |
| Nc1nc(N)c2nc(-c3ccccc3)c(N)nc2n1 [Triamterene, 2,4,7-triamino-6-phenylpteridine] | 15.7 | 13.4 | reduction in GAGs (Idua-KO MEFs [3]): little to no reduction in GAGs; change of Idua mRNA levels [2]: did not significantly change Idua mRNA levels; α-L-iduronidase activity (Idua-KO MEFs [4]): slight increases in α-L-iduronidase |
| O=C(O)c1cccc(-c2noc(-c3ccccc3F)n2)c1 [ataluren] |  |  | toxicity / safety for clinical use [5]: non-toxic and safe for clinical use; lung function [6]: did not significantly improve lung function |
| Verteporfin | 7.1 | 4.3 |  |
